Where “and” joins values, the source holds several entries; their conditions need not be identical. Identical values can stand only once. Marks after values point to notes of the source that are not given here. Ends that are not written are not given here.
What was measured:
Helicobacter pylori [1] = experiment: germicidal suspension assay; settings: nisin 0 or 100 µg/ml, 37°C
[2] = tested on: Campylobacter jejuni ATCC29428; experiment: germicidal suspension assay; settings: nisin 0 or 100 µg/ml, 37°C
Escherichia coli = experiment: germicidal suspension assay of chelator-enhanced nisin in acid vehicles; format: cell-based; settings: for % survival at 1 min: 37°C
Procedure: The rapid activities of various chelator-enhanced nisin formulations were evaluated in acid vehicles in a germicidal suspension assay.
E. coli cells from an overnight Trypticase soy nutrient agar (TSA) were resuspended to a density measured as an absorbance of 1.0 at 600 nm in sterile ddH2O. The reaction of the cells with each of the bactericidal test formulations analyzed was started by addition of 30 µl of cells to 970 µl of test formulation. The reaction mixture was incubated at 37°C for at least 1 minute and then centrifuged in a microfuge for 1 minute. The cell pellet was washed by resuspension in 1 ml of neutralization buffer. (The neutralization buffer: 50 mM Tris-HCl, pH 7.0, 5 mM MgSO4, 20 mM CaC12, 0.1 M NaCl and 0.1% gelatin was prepared by first making Tris buffer and adjusting the pH. The salts and gelatin were then added and the solution stirred with heat until the solution was clear. The solution was then autoclaved for 20 min. The neutralization buffer was used without dilution.) The cells were centrifuged in a microfuge for 1 minute and resuspended in 1 ml of neutralization buffer. The viable count was determined by spreading 100 µl of bacterial suspension and serial dilutions thereof in neutralization buffer on nutrient agar and scoring surviving colonies after 24 h at 37°C. Percent survival relative to untreated controls was calculated from the scored values.
In Table 1 and subsequent Tables 2, 4 and 8-13 values preceded by "<" represent the percent survival figures, based on the initial concentration of viable bacteria (expressed as colony forming units (cfu) /ml) in the assayed bacterial suspension and the aliquot volume of said suspension taken for assay, corresponding to the detection of no surviving colonies.

E. coli strain ATCC8739 = experiment: nisin-citrate agar assay (growth inhibition on nutrient agar); format: cell-based
Source text: However, nisin in the presence of citrate is active against gram negative bacteria. […] This nisin-citrate agar assay has much more general applicability. The assay provides a method for screening potential agents other than citrate in combination with nisin for their potential properties as enhancers of nisin's inherent bactericidal activity. Examples of other organic acids in combination with nisin would include acetate, propionate, lactate, succinate, fumarate, malonate, adipate, sorbate, phosphate and ascorbate.
The nisin-citrate agar assay is performed as follows. E. coli is resuspended to an optical density of 1.0 at A600. A 100 µl sample of the bacterial suspension is spread uniformly on Trypticase Soy nutrient agar (TSA) supplemented with various concentrations of citrate (eg. 0.1%, 0.3%, 1.0%, 3.0%) and incubated for 1 hour at 37°C. A nisin stock solution and serial dilutions thereof in 0.1% bovine serum albumin (BSA), are prepared and 5 µl are taken from each and deposited onto the growing bacterial lawn. The TSA plates are then incubated for 24 hours at 37°C. After 24 hours at 37°C, E. coli grown on TSA supplemented with citrate form a confluent lawn. […] The effectiveness of nisin against the gram negative bacteria can be assessed from determining the minimum amount of nisin required to produce a clear zone of growth inhibition. As the concentration of citrate in the nutrient agar is increased, less nisin is required to inhibit the growth of E. coli, as is illustrated by the data shown in Table 6.

Helicobacter pylori [3] = experiment: germicidal suspension assay; format: cell-based; settings: 37°C
[4] = tested on: Campylobacter jejuni ATCC29428; experiment: germicidal suspension assay; format: cell-based; settings: for % survival at 5 min: pH 5.0, nisin 100 µg/ml, 37°C

`O=C(O)CC(O)(CC(=O)O)C(=O)O` [Citrate] was tested, and the “% survival at 5 min” value (Helicobacter pylori [1]; strain ATCC 43504, 0.1% citrate adjusted to pH 5.0) was 68.5^d %, the “% survival at 5 min” value (Helicobacter pylori [1]; strain ATCC 43504, 0.3% citrate adjusted to pH 5.0) was 100^e % and the “% survival at 5 min” value (Helicobacter pylori [1]; strain ATCC 43579, 0.1% citrate adjusted to pH 2.5) was <5.0x10^-4%. For the same compound, the “% survival at 5 min” value (Helicobacter pylori [1]; strain ATCC 43579, 0.1% citrate adjusted to pH 3.0) was 1.1x10^-3%, the “% survival at 5 min” value (Helicobacter pylori [1]; strain ATCC 43579, 0.1% citrate adjusted to pH 5.0) was 97.2^b % and the “% survival at 5 min” value ([2]; 0.3 % w/v citrate pH 5.0) was <6.4x10^-3%. For the same compound, the “% survival at 5 min” value ([2]; 1.0 % w/v citrate pH 5.0) was <6.4x10^-3%.
With “nisin (ITSISLCTPGCKTGALMGCNMKTATCHCSIHVSK; also: lantibiotic nisin A: thioether rings and dehydrated residues not placed; UniProt P13068 24-57, looked up) [lanthionine-containing bacteriocin]” the “% survival at 1 min” value (Escherichia coli; 0.1 % w/v acetate pH 3.5, nisin 100 µg/ml and/or EDTA 1.0 mM, or acetate alone) was 9.6%, the “% survival at 1 min” value (Escherichia coli; 0.1 % w/v lactate pH 3.5, nisin 100 µg/ml and/or EDTA 1.0 mM, or lactate alone) was 4.4% and the “% survival at 1 min” value (Escherichia coli; 0.1 % w/v succinate pH 3.5, nisin 100 µg/ml and/or EDTA 1.0 mM, or succinate alone) was 18.3%. For the same compound, the “% survival at 1 min” value (Escherichia coli; 0.3 % w/v acetate pH 3.5, nisin 100 µg/ml and/or EDTA 1.0 mM, or acetate alone) was 70%, the “% survival at 1 min” value (Escherichia coli; 0.3 % w/v lactate pH 3.5, nisin 100 µg/ml and/or EDTA 1.0 mM, or lactate alone) was 0.24% and the “% survival at 1 min” value (Escherichia coli; 0.3 % w/v succinate pH 3.5, nisin 100 µg/ml and/or EDTA 1.0 mM, or succinate alone) was 66.6%. For the same compound, the “% survival at 1 min” value (Escherichia coli; 1.0 % w/v acetate pH 3.5, nisin 100 µg/ml and/or EDTA 1.0 mM, or acetate alone) was 100%, the “% survival at 1 min” value (Escherichia coli; 1.0 % w/v lactate pH 3.5, nisin 100 µg/ml and/or EDTA 1.0 mM, or lactate alone) was 17.8% and the “% survival at 1 min” value (Escherichia coli; 1.0 % w/v succinate pH 3.5, nisin 100 µg/ml and/or EDTA 1.0 mM, or succinate alone) was 83.4%. For the same compound, the “% survival at 1 min” value (Escherichia coli; 3.0 % w/v acetate pH 3.5, nisin 100 µg/ml and/or EDTA 1.0 mM, or acetate alone) was 100%, the “% survival at 1 min” value (Escherichia coli; 3.0 % w/v lactate pH 3.5, nisin 100 µg/ml and/or EDTA 1.0 mM, or lactate alone) was 26.7% and the “% survival at 1 min” value (Escherichia coli; 3.0 % w/v succinate pH 3.5, nisin 100 µg/ml and/or EDTA 1.0 mM, or succinate alone) was 28.4%. For the same compound, the “survival of E. coli on exposure to the agent by itself” value (Escherichia coli; each agent by itself) was “unaffected”, the “% survival at 1 min” value (Escherichia coli; pH 2.0, 20 mM Na acetate buffer, nisin 100 µg/ml and/or EDTA 1.0 mM) was 0.28% and the “% survival at 1 min” value (Escherichia coli; pH 2.5, 20 mM Na acetate buffer, nisin 100 µg/ml and/or EDTA 1.0 mM) was 3.37%. For the same compound, the “% survival at 1 min” value (Escherichia coli; pH 3.0, 20 mM Na acetate buffer, nisin 100 µg/ml and/or EDTA 1.0 mM) was 4.43%, the “% survival at 1 min” value (Escherichia coli; pH 3.5, 20 mM Na acetate buffer, nisin 100 µg/ml and/or EDTA 1.0 mM) was 100% and the “% survival at 1 min” value (Escherichia coli; pH 4.0, 20 mM Na acetate buffer, nisin 100 µg/ml and/or EDTA 1.0 mM) was 100%. For the same compound, the “Nisin NIC (nominal inhibitory concentration of nisin minimally required to prevent growth)” value (E. coli strain ATCC8739; Trypticase Soy Agar supplemented with 0.1% citrate) was 370 µg/mL, the “Nisin NIC (nominal inhibitory concentration of nisin minimally required to prevent growth)” value (E. coli strain ATCC8739; Trypticase Soy Agar supplemented with 0.3% citrate) was 123 µg/mL and the “Nisin NIC (nominal inhibitory concentration of nisin minimally required to prevent growth)” value (E. coli strain ATCC8739; Trypticase Soy Agar supplemented with 1.0% citrate) was 13.7 µg/mL. For the same compound, the “Nisin NIC (nominal inhibitory concentration of nisin minimally required to prevent growth)” value (E. coli strain ATCC8739; Trypticase Soy Agar supplemented with 3.0% citrate) was 0.06 µg/mL, the “Nisin NIC (nominal inhibitory concentration of nisin minimally required to prevent growth)” value (E. coli strain ATCC8739; Trypticase Soy Agar with 0% citrate) was 3,333 µg/ml and the “% survival at 5 min” value (Helicobacter pylori [3]; strain ATCC 43504, EDTA 0, nisin 100 µg/ml, pH 5.0, incubated in presence of 20 mM acetate) was 7.03^e %. The “% survival at 5 min” value (Helicobacter pylori [3]; strain ATCC 43504, citrate 0, nisin 100 µg/ml, 20 mM acetate, pH 5.0, two experiments (initial count 2.7 x 10^5 and 3.7 x 10^4 cfu/ml)) was 0.69^d % and 4.86^e %, the “% survival at 5 min” value (Helicobacter pylori [3]; strain ATCC 43504, pH 5.0, citrate 0, nisin 100 µg/ml) was 0.043% and the “% survival at 5 min” value (Helicobacter pylori [3]; strain ATCC 43504, pH 7.0, citrate 0, nisin 100 µg/ml) was 2.08%. For the same compound, the “% survival at 5 min” value (Helicobacter pylori [3]; strain ATCC 43526, pH 7.0, EDTA 0, nisin 100 µg/ml) was 5.88%, the “% survival at 5 min” value (Helicobacter pylori [3]; strain ATCC 43579, citrate 0, nisin 100 µg/ml, 20 mM acetate, pH 5.0, average of 5 experiments) was 0.30^c % and the “% survival at 5 min” value (Helicobacter pylori [3]; strain ATCC 43579, citrate 0, nisin 100 µg/ml, 20 mM acetate, pH 5.0, single experiment) was 8.6x10^-3 ^e %. The “% survival at 5 min” value (Helicobacter pylori [3]; strain ATCC 43579, nisin 10 µg/ml, without or with 0.1% citrate pH 5.0) was 1.41%, the “% survival at 5 min” value (Helicobacter pylori [3]; strain ATCC 43579, nisin 30 µg/ml, without or with 0.1% citrate pH 5.0) was 0.39% and the “% survival at 5 min” value (Helicobacter pylori [3]; strain ATCC 43579, nisin 100 µg/ml, without or with 0.1% citrate pH 5.0) was 0.085%. For the same compound, the “% survival at 5 min” value (Helicobacter pylori [3]; strain ATCC 43579, nisin 300 µg/ml, without or with 0.1% citrate pH 5.0) was 0.0056%, the “% survival at 5 min” value (Helicobacter pylori [3]; strain ATCC 43579, pH 5.0, EDTA 0, nisin 100 µg/ml) was 4.7% and the “% survival at 5 min” value (Helicobacter pylori [3]; strain ATCC 43579, pH 5.0, citrate 0, nisin 100 µg/ml) was 9.62%. For the same compound, the “% survival at 5 min” value (Helicobacter pylori [3]; strain ATCC 43579, pH 7.0, citrate 0, nisin 100 µg/ml) was 0.78%, the “% survival at 5 min” value ([4]; EDTA 0) was <5.0x10^-4% and the “% survival at 5 min” value ([4]; citrate 0) was <6.4x10^-3%. For the same compound, the “effectiveness towards C. jejuni” value ([4]; nisin by itself) was “extremely effective”.

Source: patent publication EP0623024B1, “PHARMACEUTICAL BACTERIOCIN COMPOSITIONS AND THEIR USE FOR TREATING GASTROINTESTINAL DISORDERS” (APPLIED MICROBIOLOGY, INC., priority 1992, dated 1993)
